Measurements: patent US20110192396A1, “PHARMACEUTICAL COMPOSITION FOR PREVENTING OR TREATING CHRONIC OBSTRUCTIVE PULMONARY DISEASE” (DAEWOONG CO., LTD., priority 2008, published 2011)

What was measured:
MLE-12 cells = assay: Protection of alveolar cells from elastase cell toxicity, neutral red uptake (NRU) assay; format: cell-based, murine; details: 100 μg/mL EGF; 2 U/mL elastase; elastase only = 100%, medium only = 0% cell toxicity
Method: MLE-12 cells were divided into a 96-well plate such that the number of MLE-12 cells per well was […]. The MLE-12 cells were incubated in 5% CO2 incubator at 37° C. for one day. […] A neutral red uptake (NRU) assay was performed using a neutral red that dyes only living cells to measure the degree of cell death. […] The cells were fixed using a fixing solution (1% formaldehyde, 1% CaCl2) for 1 minute, and the neutral red dye reagent was extracted using a chromogenic solution including 50% ethanol and 1% glacial acetic acid. Then, light absorbance was measured at a wavelength of 540 nm.

[1] = test system: PPE-induced emphysema model; assay: PPE-induced rat emphysema model, histopathological examination of lung and trachea; format: in vivo, Sprague-Dawley rats
Method: 6-week old male Sprague-Dawley rats (Japan SLC, Inc) having an average weight ranging from 200 to 250 g were accommodated for 1 week to prepare 7-week old rats. The rats were raised in individual ventilated cage (IVC) racks (GR900 plus rat cage, Polysulfone, 355 W×405 I×230 H mm) at a constant temperature (22±3° C.) at a constant relative humidity (55±15%) using fluorescent lamps (lights are on 08:00 to 20:00) for 12 hours, and food and water were fed ad libitum (solid feed 5L79, Orient Co., Ltd.). 120 U/kg, 1 mL/kg of pig pancreas elastase (PPE, Merck 324682) was administered once by intratracheal instillation to rats anesthetized with isoflurane. 1 mL/kg of 0.9% saline was administered once by intratracheal instillation to rats in the group in which emphysema was not induced. In order to uniformly administer test article into lung cavity, the same amount of air as the administered substances was administered during the intratracheal instillation. […] After 7 weeks from the PPE administration, the rats were anesthetized with isoflurane, and the lung and the trachea were isolated and fixed using 10% neutral formalin. Then histopathological examination of the lung and the trachea were performed and microscopic images were obtained. The test results were represented as average ±standard deviation. In order to detect a test group statistically significant from a control group, the results were statistically tested using one way ANOVA, and significance was analyzed using a multiple comparison method. […] In addition, FIGS. 7 and 8 illustrated the results of the tissue pathological tests of tracheas and lungs with a table.

[2] = test system: MUC5AC gene expression in NCI-H292 cells; assay: Suppression of MUC5AC mucus gene expression in PA-LPS/TGF-α-treated NCI-H292 cells (real time PCR); format: cell-based, human; details: 50 ng/mL EGF; NCI-H292 cells pre-treated with PA-LPS and TGF-α for 6 hours; vs control with PA-LPS and TGF-α only
Method: NCI-H292 cells (ATCC, CRL-1848) were divided into a 6-well plate such that the number of the NCI-H292 cells per well was 10^6. The NCI-H292 cells were incubated in a 5% CO2 incubator at 37° C. for one day. The NCI-H292 cells were incubated in a serum free medium for one day, and then treated with 100 mg/mL of Pseudomonas aeruginosa lipopolysaccharide (PA-LPS, Sigma L8643) and 10 ng/mL of a transforming growth factor-alpha (TGF-α R&D systems 239-a-100) at the same time for 6 hours to induce overexpression of MUC5AC mucus. The PA-LPS and TGF-α were removed, and epidermal growth factors (EGFs) having different concentrations were added to the NCI-H292 cells. […]
RNA was isolated using a kit manufactured by QIAGEN (RNeasy Plus Mini Kit, 74134) according to the manuals provided by the manufacturer in order to isolate entire RNA. Absorbance of the isolated RNA was measured using a spectrophotometer at a wavelength of 260 nm to quantitatively analyze RNA. […]
A SYBR green assay was performed by adding cDNA, a forward primer, and a reverse primer to 12.5 mL of a SYBR green PCR master mix (Applied Biosystems, 4309155) such that the total volume of the mixture was set to 25 mL. […] The determined concentrations of the primers for MUC5AC, ICAM-1, RPL1 were respectively 900 nM, and the concentration β-ACT thereof was 300 nM. […]

[3] = G3: 0.1 mg/kg EGF intratracheal instillation, once a week for 3 weeks, rats

EGF: recombinant proteins having the same amino acid sequence as natural human epidermal growth factor (hEGF); 53 amino acids, SEQ ID NO: 1
reduction of cell toxicity (MLE-12 cells): about 15%
degree and number of enlargement and breakdown of alveoli compared with the control group of PPE-induced emphysema model ([1]; G3, group with emphysema treated with EGF): reduced
cases with mild breakdown of alveoli [1, 3]: 3 cases
cases with mild enlargement of alveoli [1, 3]: 3 cases
cases with moderate breakdown of alveoli [1, 3]: 1 case
cases with moderate enlargement of alveoli [1, 3]: 1 case
cases with very mild breakdown of alveoli [1, 3]: 1 case
cases with very mild enlargement of alveoli [1, 3]: 2 cases
cases with very mild histiocytosis [1, 3]: 1 case
reduction of expression of MUC5AC [2]: 65%
